The test system of series [1] is HepG2. Kind of series: Antitumor activity against human HepG2 cells xenografted in Balb/C mouse assessed as inhibition of tumor growth at 8 mg/kg, iv dosed once per week for 30 days followed by 2 weeks observation relative untreated control. The following applies: read-out: TGI. The class given is functional. (In general: A xenograft is tissue or cells of one species grown in another, often human tumour cells in immunodeficient mice.)

Series [2] concerns MDA-MB-231. In words: Cytotoxicity in human MDA-MB-231 cells assessed as reduction in cell viability incubated for 48 hrs by MTT assay. The class given is functional, cell-based. The following applies: MDA-MB-231, 48 h.
Series [3] relates to Bel-7402. Kind of series: Cytotoxicity in human Bel7402 cells assessed as reduction in cell viability incubated for 48 hrs by MTT assay. The class given is functional, cell-based. The conditions noted are these: Bel-7402, 48 h. On the technique in general: Formazan colour is commonly taken as a measure of viable cells.
Series [4] in a line: Drug level in plasma of C57BL/6 mouse at 10 mg/kg, po measured up to 30 hrs by LC-MS/MS analysis. Type of series: ADME, organism-based. The following applies: in vivo.
Series [5] deals with A549. Kind of series: cells. The following applies: Homo sapiens, A549, 48 h.
Description: Cytotoxicity in human A549 cells assessed as reduction in cell viability incubated for 48 hrs by MTT assay
In series [6] the test system is Mus musculus. Kind of series: Toxicity in human HepG2 cells xenografted Balb/C mouse assessed as effect on mouse survival at 8 mg/kg, iv dosed once per week for 30 days followed by 2 weeks observation. The class given is organism-based. The following applies: in vivo, 336 h.
For series [7], the system named is Mus musculus. In words: Toxicity in human HepG2 cells xenografted Balb/C mouse assessed as reduction in body weight at 4 mg/kg, iv dosed once per week for 30 days followed by 2 weeks observation. The following applies: in vivo, 336 h. The class given is organism-based.
Series [8] concerns Mus musculus. In words: Protection against LPS-induced lethal inflammation in C57BL/6 mouse model of sepsis assessed as survival at 4 mg/kg, po dosed 0.5 hrs before LPS injection followed by 4 mg/kg, po dosing at 1 hr, 4 hrs, and 8 hrs after LPS treatment. Type of series: functional.
In series [9] the test system is Mus musculus. Kind of series: Toxicity in human HepG2 cells xenografted Balb/C mouse assessed as reduction in body weight at 1.3 mg/kg, po qd for 30 days followed by 2 weeks observation. The class given is organism-based. The following applies: in vivo, 336 h.
The test system of series [10] is KB. In words: Cytotoxicity in human KB cells assessed as reduction in cell viability incubated for 48 hrs by MTT assay. Type of series: functional, cell-based.
In series [11] the test system is MGC-803. Kind of series: Cytotoxicity in human MGC803 cells assessed as reduction in cell viability incubated for 48 hrs by MTT assay. The following applies: MGC-803, 48 h. The class given is functional, cell-based.
For series [12], the system named is Mus musculus. In words: Toxicity in human HepG2 cells xenografted Balb/C mouse assessed as effect on mouse survival at 4 mg/kg, iv dosed once per week for 30 days followed by 2 weeks observation. The class given is organism-based. The conditions noted are these: in vivo, 336 h.
Series [13] relates to Mus musculus. Kind of series: Toxicity in human HepG2 cells xenografted Balb/C mouse assessed as induction of gastrointestinal flatulence at 4 mg/kg, iv dosed once per week for 30 days followed by 2 weeks observation. The conditions noted are these: in vivo, 336 h. The class given is organism-based.
Series [14] in a line: Drug metabolism in plasma of C57BL/6 mouse assessed as (S)-8-Ethyl-8-hydroxy-2-isopropyl-8H-oxazolo[4,5-f ]-pyrano[3',4':6,7]indolizino[1,2-b]quinoline-9,12(11H,14H)-dione formation at 10 mg/kg, po measured up to 1 hr by LC-MS/MS analysis. Type of series: ADME, organism-based. The following applies: in vivo.
The subject of series [15] is Mus musculus. Kind of series: Toxicity in human HepG2 cells xenografted Balb/C mouse assessed as reduction in body weight at 8 mg/kg, iv dosed once per week for 30 days followed by 2 weeks observation. Type of series: organism-based. The following applies: in vivo, 336 h.
For series [16], the system named is Mus musculus. In words: Toxicity in human HepG2 cells xenografted Balb/C mouse assessed as induction of gastrointestinal flatulence at 1/3 mg/kg, po qd for 30 days followed by 2 weeks observation. Type of series: organism-based. The following applies: in vivo, 336 h.
Series [17] relates to SK-N-SH. Kind of series: Cytotoxicity in human SK-N-SH cells assessed as reduction in cell viability incubated for 48 hrs by MTT assay. Type of series: functional, cell-based.
Series [18] relates to HepG2. In words: Antitumor activity against human HepG2 cells xenografted in Balb/C mouse assessed as inhibition of tumor growth at 1.3 mg/kg, po qd for 30 days followed by 2 weeks observation relative untreated control. The class given is functional. The following applies: read-out: TGI.
In series [19] the test system is QGY-7703. In words: Cytotoxicity in human QGY7703 cells assessed as reduction in cell viability incubated for 48 hrs by MTT assay. Type of series: functional, cell-based. The conditions noted are these: QGY-7703, 48 h.
The subject of series [20] is HepG2. In words: Antitumor activity against human HepG2 cells xenografted in Balb/C mouse assessed as inhibition of tumor growth at 4 mg/kg, iv dosed once per week for 30 days followed by 2 weeks observation relative untreated control. Type of series: functional. The following applies: read-out: TGI.
In series [21] the test system is Mus musculus. In words: Toxicity in human HepG2 cells xenografted Balb/C mouse assessed as effect on mouse survival at 1.3 mg/kg, po qd for 30 days followed by 2 weeks observation. The conditions noted are these: in vivo, 336 h. Type of series: organism-based.
For series [22], the system named is HepG2. Kind of series: Cytotoxicity in human HepG2 cells assessed as reduction in cell viability incubated for 48 hrs by MTT assay. Type of series: functional, cell-based. The following applies: HepG2, 48 h.
The subject of series [23] is MCF7. Kind of series: cells. The following applies: Homo sapiens, MCF7, 48 h.
Description: Cytotoxicity in human MCF7 cells assessed as reduction in cell viability incubated for 48 hrs by MTT assay
For series [24], the system named is SGC-7901. Kind of series: Cytotoxicity in human SGC7901 cells assessed as reduction in cell viability incubated for 48 hrs by MTT assay. The conditions noted are these: SGC-7901, 48 h. The class given is functional, cell-based.
A short description of series [25]: Drug metabolism in plasma of C57BL/6 mouse assessed as (9S)-9-Ethyl-9-hydroxy-3-isopropyl-2,3-dihydro[1,3]-oxazino[5,6-f ]pyrano[3',4':6,7]indolizino[1,2-b]quinoline-1,10,13(9H,12H,15H)-trione formation at 10 mg/kg, iv measured up to 1 hr by LC-MS/MS analysis. The conditions noted are these: in vivo. The class given is ADME, organism-based.
In series [26] the test system is SMMC-7721. In words: Cytotoxicity in human SMMC7721 cells assessed as reduction in cell viability incubated for 48 hrs by MTT assay. The class given is functional, cell-based. The conditions noted are these: SMMC-7721, 48 h.
The nature of series [27]: Drug metabolism in plasma of C57BL/6 mouse assessed as (9S)-9-Ethyl-9-hydroxy-3-isopropyl-2,3-dihydro[1,3]-oxazino[5,6-f ]pyrano[3',4':6,7]indolizino[1,2-b]quinoline-1,10,13(9H,12H,15H)-trione formation at 10 mg/kg, po measured up to 1 hr by LC-MS/MS analysis. The class given is ADME, organism-based. The following applies: in vivo.
Series [28] deals with Mus musculus. In words: Toxicity in human HepG2 cells xenografted Balb/C mouse assessed as induction of gastrointestinal flatulence at 8 mg/kg, iv dosed once per week for 30 days followed by 2 weeks observation. The class given is organism-based. The conditions noted are these: in vivo, 336 h.
In series [29] the test system is HepG2. Kind of series: Antitumor activity against human HepG2 cells xenografted in Balb/C mouse assessed as inhibition of tumor growth at 30 mg/kg, iv dosed once per week for 30 days followed by 2 weeks observation relative untreated control. The class given is functional. The following applies: read-out: TGI.
Series [30] deals with T1, DNA topoisomerase 1 (Homo sapiens) (UniProt P11387).
T1 sequence (whole entry): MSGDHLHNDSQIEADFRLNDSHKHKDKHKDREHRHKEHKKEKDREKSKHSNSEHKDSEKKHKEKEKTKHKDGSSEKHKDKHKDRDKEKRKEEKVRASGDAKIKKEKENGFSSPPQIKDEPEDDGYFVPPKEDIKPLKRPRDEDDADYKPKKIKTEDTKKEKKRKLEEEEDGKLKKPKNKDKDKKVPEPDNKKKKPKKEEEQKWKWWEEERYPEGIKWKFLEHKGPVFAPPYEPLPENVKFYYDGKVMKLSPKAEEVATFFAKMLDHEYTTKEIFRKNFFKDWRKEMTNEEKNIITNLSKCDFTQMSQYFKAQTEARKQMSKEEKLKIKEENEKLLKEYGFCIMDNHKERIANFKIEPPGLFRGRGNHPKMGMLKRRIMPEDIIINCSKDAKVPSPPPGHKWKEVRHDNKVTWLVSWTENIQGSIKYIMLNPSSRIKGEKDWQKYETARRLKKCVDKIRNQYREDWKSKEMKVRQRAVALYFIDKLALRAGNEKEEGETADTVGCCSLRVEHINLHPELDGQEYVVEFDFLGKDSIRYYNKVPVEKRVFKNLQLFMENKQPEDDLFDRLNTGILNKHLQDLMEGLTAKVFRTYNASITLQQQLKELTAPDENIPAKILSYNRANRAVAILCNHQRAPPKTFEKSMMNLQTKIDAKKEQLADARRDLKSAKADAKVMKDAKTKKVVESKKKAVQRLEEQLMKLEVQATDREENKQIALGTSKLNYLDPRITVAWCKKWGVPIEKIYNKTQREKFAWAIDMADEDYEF
Kind of series: Inhibition of human recombinant topoisomerase-1-mediated DNA cleavage in at 100 uM using supercoiled pHOT-1 DNA incubated for 30 mins by ethidium bromide staining based agarose gel elctrophoresis method.

For series [31], the system named is HepG2. Kind of series: Antitumor activity against human HepG2 cells xenografted in Balb/C mouse assessed as inhibition of tumor growth at 2 mg/kg, iv dosed once per week for 30 days followed by 2 weeks observation relative untreated control. Type of series: functional. The conditions noted are these: read-out: TGI.
For series [32], the target named is T1, DNA topoisomerase 1 (Homo sapiens). In words: Inhibition of human recombinant topoisomerase-1-mediated DNA cleavage in at 50 uM using supercoiled pHOT-1 DNA incubated for 30 mins by ethidium bromide staining based agarose gel elctrophoresis method.
Series [33] has as its system Mus musculus. In words: Toxicity in Balb/C mouse administered as daily dose for 1 week measured daily for up to 28 days. The conditions noted are these: in vivo. Type of series: organism-based.
Series [34] relates to Mus musculus. Kind of series: Toxicity in human HepG2 cells xenografted Balb/C mouse assessed as reduction in body weight at 2 mg/kg, iv dosed once per week for 30 days followed by 2 weeks observation. The class given is organism-based. The conditions noted are these: in vivo, 336 h.
For series [35], the system named is HepG2. Kind of series: Antitumor activity against human HepG2 cells xenografted in Balb/C mouse assessed as inhibition of tumor growth at 2 mg/kg, iv dosed once per week for 30 days followed by 2 weeks observation. The class given is functional, organism-based.
Series [36] can be described thus: Aqueous solubility of the compound. The class given is physicochemical. The conditions noted are these: aqueous; read-out: solubility.

Activity calls are given as the source filed them. The calls are words filed in the database; no cut-off is given here. Bounds are passed on as bounds.

One may read the IC50 as the concentration that inhibits the measured activity by half. `CC[C@@]1(OC(=O)CNC(=O)CCC(=O)O)C(=O)OCc2c1cc1n(c2=O)Cc2cc3c4c(ccc3nc2-1)OC(C(C)C)NC4=O` (stereo not given in full): in [1], the inhibition in vivo at 8 mg/kg was 93%. In addition, the IC50 was 5.02 µM in series [2]; > 10 µM in series [3]; 6.47 µM in series [5]; 7.28 µM in series [10]; 0.971 µM in series [11]; 0.194 µM in series [17]. Moreover, the IC50 is > 10 µM in series [19]; 0.971 µM in [22]; > 10 µM in [23]; > 10 µM in series [24]; > 10 µM in series [26]. For the same compound, the Drug uptake entry in series [4] was “Not Active”. Moreover, the Activity entry in [6] is on record as “Non-Toxic”; in [7], “Non-Toxic”; in series [8], 100%; in series [9], “Non-Toxic”; in [12] it was “Non-Toxic”; in [13], “Toxic”. Further, the Activity result in series [15] is on record as “Non-Toxic”; in [16], “Toxic”; in [21], “Non-Toxic”; in [28], “Toxic”. In addition, the Drug metabolism result in series [14], in series [25] and in [27] was “Metabolite_Notdetected” in each case. The inhibition in vivo at 1.3 mg/kg in series [18] was 93%. Moreover, the inhibition in vivo at 4 mg/kg in series [20] was determined as 83%. Moreover, in series [29], the inhibition in vivo at 30 mg/kg came out at 90%.

In general, solubility refers to how much of the substance goes into solution per volume. `CC[C@@]1(O)C(=O)OCc2c1cc1n(c2=O)Cc2cc3c(CN(C)C)c(O)ccc3nc2-1` [TOPOTECAN]: the IC50 came to 1.9 µM in [2]; 7.12 µM in [3]; 0.19 µM in series [11]; 0.093 µM in series [17]; 11.9 µM in series [19]; 0.237 µM in series [22]. Moreover, the IC50 in series [23] is 2.14 µM; in series [24], > 10 µM; in [26] it was 11.6 µM. Besides, the inhibition result in series [30] and in series [32] was “Active” each time. Besides, the inhibition in vivo at 2 mg/kg in series [31] turned out to be 74%. In series [33], the MTD is 2 mg/kg. The Activity entry in series [34] is given as “Toxic”. In addition, in series [35], the TGI entry is “Active”. In addition, the solubility in series [36] is < 1000 µg/mL.

For the origin of these results see ChEMBL document CHEMBL4196217, “Structure-Based Drug Design and Identification of H2O-Soluble and Low Toxic Hexacyclic Camptothecin Derivatives with Improved Efficacy in Cancer and Lethal Inflammation Models in Vivo” (J Med Chem, 2018).
